Counter-ions that a name gives are not always drawn. Like-named read-outs stand apart in the source and are kept apart here.
Legend:
human FLAP = human FLAP (Homo sapiens (Human), UniProt P20292); test: FLAP binding assay (HTRF format)
In short: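 Samples were run in duplicate on each of two plates and the plate results averaged. Read-out is the HTRF signal ratio.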

[1] = system: leukotriene pathway in human whole blood (LTB4 levels); test: Human whole blood assay (A23187-stimulated LTB4); format: cell-based; details: Homo sapiens, read-out: LTB4 IC50 1:1
In short: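 Blood (heparin) diluted 1:1 RPMI; compound pre-incubation 15 min, 37° Celsius; A23187 7 μg/mL, 30 min, 37° Celsius; plasma LTB4 by commercial kit. IC50 via 4-parameter equation.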

[2] = human whole blood diluted 1:1, A23187-stimulated
[3] = human FLAP wild type, HTRF format, average of two plates, duplicates
[4] = human whole blood diluted 1:1 in RPMI, A23187-stimulated LTB4

human FLAP, sequence (P20292 whole entry): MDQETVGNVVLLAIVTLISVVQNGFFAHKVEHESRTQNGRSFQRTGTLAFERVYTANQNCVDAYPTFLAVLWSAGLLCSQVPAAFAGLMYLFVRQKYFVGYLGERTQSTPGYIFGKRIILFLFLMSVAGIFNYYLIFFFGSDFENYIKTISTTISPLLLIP

SMILES	Ki (human FLAP; wild type FLAP, HTRF format)	IC50 [1, 2]	Ki (human FLAP; [3])	IC50 [1, 4]	Ki (human FLAP; read-out: FLAP Binding wild type HTRF Ki)
C[C@@H](O)CNS(=O)(=O)c1ccccc1-c1ccc(-c2cnc(N)nc2)nc1 [Example 689, 2-[6-(2-Aminopyrimidin-5-yl)pyridin-3-yl]-N-[(2R)-2-hydroxypropyl]benzenesulfonamide]	485 nM	787 nM	–	–	–
Fc1cc(-c2ccccc2Oc2ncccn2)ccc1-c1ccc2[nH]cnc2c1 [Example 543, 5-[3-Fluoro-2′-(pyrimidin-2-yloxy)biphenyl-4-yl]-1H-benzimidazole]	444 nM	4160 nM	–	–	–
CCCCCCS(=O)(=O)Nc1ccccc1-c1ccc(-c2cnc(N)cn2)c(F)c1 [Example 39, N-[4′-(5-Aminopyrazin-2-yl)-3′-fluorobiphenyl-2-yl]hexane-1-sulfonamide]	–	–	8 nM	75 nM	–
COCCCS(=O)(=O)c1ncccc1-c1ccc(-c2cnc(N)cn2)c(F)c1 [Example 818, 5-(2-Fluoro-4-(2-((3-methoxypropyl)sulfonyl)pyridine-3-yl)phenyl)pyrazin-2-amine hydrogen chloride salt]	27.2 nM	51.6 nM	–	–	–
N#Cc1cc(Oc2ccccc2-c2ccc(-c3cnc(N)cn3)c(F)c2)ccn1 [Example 537, 4-{[4′-(5-Aminopyrazin-2-yl)-3′-fluorobiphenyl-2-yl]oxy}pyridine-2-carbonitrile]	3 nM	42 nM	–	–	–
N#Cc1ccc(Oc2ccccc2-c2ccc(-c3cnc(N)cn3)c(F)c2)nc1 [Example 626, 6-{[4′-(5-Aminopyrazin-2-yl)-3′-fluorobiphenyl-2-yl]oxy}pyridine-3-carbonitrile]	6.2 nM	45.3 nM	–	–	–
CC(C)Oc1ncccc1-c1ccc(-c2cnc3[nH]ccc3n2)c(F)c1 [Example 399, 2-{2-Fluoro-4-[2-(1-methylethoxy)pyridin-3-yl]phenyl}-5H-pyrrolo[2,3-b]pyrazine]	28 nM	358 nM	–	–	–
Nc1ncc(-c2ccc(-c3ccccc3S(=O)(=O)NCCO)cc2F)cn1 [Example 275, 4′-(2-Aminopyrimidin-5-yl)-3′-fluoro-N-(2-hydroxyethyl)biphenyl-2-sulfonamide trifluoroacetic acid salt]	–	–	–	192 nM	65 nM
Nc1ncc(-c2ccc(-c3ccccc3Oc3cc(N4CCC4)ncn3)cc2F)cn1 [Example 540, 5-{2′-[(6-Azetidin-1-ylpyrimidin-4-yl)oxy]-3-fluorobiphenyl-4-yl}pyrimidin-2-amine]	16 nM	85 nM	–	–	–
CS(=O)(=O)c1cc(C(F)(F)F)ccc1-c1ccc(-c2cnc(N)nc2)c(F)c1 [Example 323, 5-[3-Fluoro-2′-(methylsulfonyl)-4′-(trifluoromethyl)biphenyl-4-yl]pyrimidin-2-amine]	–	–	770 nM	6640 nM	–
Nc1ncc(-c2ccc(-c3ccc(C(F)(F)F)cc3S(N)(=O)=O)cc2F)cn1 [Example 322, 4′-(2-Aminopyrimidin-5-yl)-3′-fluoro-4-(trifluoromethyl)biphenyl-2-sulfonamide]	–	–	32 nM	138 nM	–
Nc1cc(Oc2ccccc2-c2ccc(-c3cnc(N)nc3)c(F)c2)ncn1 [Example 536, 5-{2′-[(6-Aminopyrimidin-4-yl)oxy]-3-fluorobiphenyl-4-yl}pyrimidin-2-amine]	21 nM	68 nM	–	–	–
Nc1cnc(-c2ccc(-c3ccccc3CSc3cc(N)ncn3)cc2F)cn1 [Example 238, 6-(((4′-(5-Aminopyrazin-2-yl)-3′-fluoro-[1,1′-biphenyl]-2-yl)methyl)thio)pyrimidin-4-amine hydrochloride]	–	–	5 nM	38 nM	–
Cc1nc(N)cc(Oc2ccccc2-c2ccc(-c3cnc(N)cn3)c(F)c2)n1 [Example 623, 6-{[4′-(5-Aminopyrazin-2-yl)-3′-fluorobiphenyl-2-yl]oxy}-2-methylpyrimidin-4-amine]	4.9 nM	93.5 nM	–	–	–
C[C@H](NC(=O)c1cc(C(F)(F)F)ccc1-c1ccc(-c2cnc(N)cn2)c(F)c1)C(F)(F)F [Example 790, 2-[4-(5-Aminopyrazin-2-yl)-3-fluoro-phenyl]-5-(trifluoromethyl)-N-[(1S)-2,2,2-trifluoro-1-methyl-ethyl]benzamide]	1.5 nM	25.3 nM	–	–	–
Nc1cnc(-c2ccc(-c3ccccc3-c3cnccn3)cc2F)cn1 [Example 838, 5-(3-Fluoro-2′-(pyrazin-2-yl)-[1,1′-biphenyl]-4-yl)pyrazin-2-amine]	28.6 nM	350 nM	–	–	–
Nc1cnc(-c2ccc(-c3ccc(C(F)(F)F)cc3C3=CCNCC3)cc2F)cn1 [Example 852, 5-[3-Fluoro-2′-(1,2,3,6-tetrahydropyridin-4-yl)-4′-(trifluoromethyl)biphenyl-4-yl]pyrazin-2-amine]	118 nM	1350 nM	–	–	–

More lines, main results first:

Ki (human FLAP; wild type FLAP, HTRF format)	IC50 [1, 2]	Ki (human FLAP; [3])	IC50 [1, 4]	SMILES	Ki (human FLAP; read-out: FLAP Binding wild type HTRF Ki)
–	–	2 nM	117 nM	CC(C)(C)NS(=O)(=O)c1ccccc1-c1ccc(-c2ccc(N)nc2)c(F)c1 [Example 342, 4′-(6-Aminopyridin-3-yl)-N-(tert-butyl)-3′-fluoro-[1,1′-biphenyl]-2-sulfonamide]	–
–	–	83 nM	375 nM	CCCCCCS(=O)(=O)c1ccccc1-c1ccc(-c2cnc(N)cn2)c(F)c1 [Example 198, 5-[3-Fluoro-2′-(hexylsulfonyl)biphenyl-4-yl]pyrazin-2-amine]	–
–	–	29 nM	10000 nM	CCN1CCCC[C@@H](NS(=O)(=O)c2ccccc2-c2ccc(-c3cnc(N)cn3)c(F)c2)C1=O [Example 27, (S)-4′-(5-Aminopyrazin-2-yl)-N-[(3S)-1-ethyl-2-oxoazepan-3-yl]-3′-fluorobiphenyl-2-sulfonamide]	–
–	–	37 nM	93 nM	Nc1ccc(-c2ccc(-c3ccccc3S(=O)(=O)N3CCS(=O)(=O)CC3)cc2F)cn1 [Example 354, 4-((4′-(6-Aminopyridin-3-yl)-3′-fluoro-[1,1′-biphenyl]-2-yl)sulfonyl)thiomorpholine 1,1-dioxide]	–
–	–	1 nM	24 nM	CC(C)(CO)NS(=O)(=O)c1ccccc1-c1ccc(-c2cnc(N)cn2)c(F)c1 [Example 100, 4′-(5-Aminopyrazin-2-yl)-3′-fluoro-N-(2-hydroxy-1,1-dimethylethyl)biphenyl-2-sulfonamide]	–
7 nM	303 nM	–	–	CCS(=O)(=O)N(C)c1ccccc1-c1ccc(-c2cnc3[nH]ccc3n2)c(F)c1 [Example 493, N-[3′-Fluoro-4′-(5H-pyrrolo[2,3-b]pyrazin-2-yl)biphenyl-2-yl]-N-methylethanesulfonamide]	–
–	–	36 nM	94 nM	CCS(=O)(=O)Nc1ccccc1-c1ccc(-c2cnc(N)cn2)c(F)c1 [Example 35, N-[4′-(5-Aminopyrazin-2-yl)-3′-fluorobiphenyl-2-yl]ethanesulfonamide]	–
1 nM	9 nM	–	–	CC(C)(C)NS(=O)(=O)c1ccccc1-c1ccc(-c2cnc(N)c(Br)n2)c(F)c1 [Example 442, 4′-(5-Amino-6-bromopyrazin-2-yl)-N-tert-butyl-3′-fluorobiphenyl-2-sulfonamide]	–
–	–	12 nM	221 nM	CN([C@@H]1CCCNC1)S(=O)(=O)c1ccccc1-c1ccc(-c2cnc(N)cn2)c(F)c1 [Example 114, (R)-4′-(5-Aminopyrazin-2-yl)-3′-fluoro-N-methyl-N-piperidin-3-ylbiphenyl-2-sulfonamide]	–
–	–	2 nM	15 nM	CC1(NS(=O)(=O)c2ccccc2-c2ccc(-c3cnc(N)cn3)c(F)c2)CCC1 [Example 11, 4′-(5-Aminopyrazin-2-yl)-3′-fluoro-N-(1-methylcyclobutyl)biphenyl-2-sulfonamide]	–
23 nM	381 nM	–	–	CC(C)(C)NS(=O)(=O)c1ccccc1-c1ccc(-c2ccc(N)nc2C#N)c(F)c1 [Example 437, 4′-(6-Amino-2-cyanopyridin-3-yl)-N-(tert-butyl)-3′-fluoro-[1,1′-biphenyl]-2-sulfonamide]	–
240 nM	2950 nM	–	–	N#CC1(S(=O)(=O)c2ccccc2-c2ccc(-c3cnc(N)nc3)c(F)c2)CCCC1 [Example 738, 1-{[4′-(2-Aminopyrimidin-5-yl)-3′-fluorobiphenyl-2-yl]sulfonyl}cyclopentanecarbonitrile]	–
–	–	142 nM	111 nM	CC1CN(S(=O)(=O)c2ccccc2-c2ccc(-c3cnc(N)cn3)c(F)c2)CC(C)N1 (racemic) [Example 62, Racemic-5-{2′-[(3,5-Dimethylpiperazin-1-yl)sulfonyl]-3-fluorobiphenyl-4-yl}pyrazin-2-amine]	–
–	–	11 nM	149 nM	CN(C)S(=O)(=O)c1ccccc1-c1ccc(-c2cnc(N)cn2)c(F)c1 [Example 42, 4′-(5-Aminopyrazin-2-yl)-3′-fluoro-N,N-dimethylbiphenyl-2-sulfonamide]	–
80.9 nM	1060 nM	–	–	CC(C)S(=O)(=O)Cc1ccccc1-c1ccc(-c2cnc(N)cn2)c(F)c1 [Example 751, 5-(3-Fluoro-2′-{[(1-methylethyl)sulfonyl]methyl}biphenyl-4-yl)pyrazin-2-amine]	–
32 nM	99 nM	–	–	CCS(=O)(=O)N(C)c1ccccc1-c1ccc(-c2cnc(N)cn2)c(F)c1 [Example 494, N-[4′-(5-Aminopyrazin-2-yl)-3′-fluorobiphenyl-2-yl]-N-methylethanesulfonamide]	–
–	–	1 nM	19 nM	C[C@H](NS(=O)(=O)c1ccccc1-c1ccc(-c2cnc(N)cn2)c(F)c1)C(O)c1ccccc1 (stereo in doubt) [Example 83, 4′-(5-Aminopyrazin-2-yl)-3′-fluoro-N-[(1S,2R)-2-hydroxy-1-methyl-2-phenylethyl]biphenyl-2-sulfonamide]	–

Source: patent publication US9079866B2, “Flap modulators” (JANSSEN PHARMACEUTICA NV, priority 2013, dated 2015)
